Experiment [1] deals with T1, protein tyrosine phosphatase 1B (PTP1B, amino acid residues 1-321) (Homo sapiens, UniProt P18031).
T1 construct: PTP1B, amino acid residues 1-321; made in house; host or cells: E. coli BL21 (DE3)
T1 sequence (P18031 1-321): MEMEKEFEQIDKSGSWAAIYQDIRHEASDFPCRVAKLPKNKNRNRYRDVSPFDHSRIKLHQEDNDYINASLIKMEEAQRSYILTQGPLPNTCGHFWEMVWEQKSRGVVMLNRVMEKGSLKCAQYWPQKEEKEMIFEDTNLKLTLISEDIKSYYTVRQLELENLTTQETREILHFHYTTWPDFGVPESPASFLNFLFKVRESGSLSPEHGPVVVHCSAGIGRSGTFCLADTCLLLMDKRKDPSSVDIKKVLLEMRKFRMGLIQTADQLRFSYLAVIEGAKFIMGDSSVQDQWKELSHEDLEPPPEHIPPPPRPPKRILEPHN
Put plainly: Inhibition constant determination for protein tyrosine phosphatase 1B (pNPP hydrolysis). Format: biochemical. To be noted: competitive Ki, pNPP substrate, +/− S.D.; read-out: Phosphatase Inhibition Constants (Kic) PTP1B.
Description: Protein tyrosine phosphatase 1B activity was determined by measuring the rate of hydrolysis of a surrogate substrate, p-nitrophenyl phosphate (aka pNPP, C1907 Sigma, St. Louis, Mo.). The assay was carried out at room temperature in 96 well polypropylene or polyethylene plates in a total volume of 100 μL per well. Appropriate dilutions of the compounds were made in DMSO and then diluted ten fold with water. […] The reaction was initiated by adding 50 μL of diluted PTP1B diluted in 2× assay buffer containing 50 mM HEPES (pH=7.5), 300 mM NaCl and 0.2 mg/mL BSA. […] For each concentration of test compound (inhibitor) or DMSO control, the initial rates are used to fit the rectangular hyperbola of Michaelis-Menten by non-linear regression analysis (GraphPad Software Prism 3.0). The ratio of the apparent Km/Vmax vs. inhibitor concentration was plotted and the competitive Ki was calculated by linear regression to be the negative x-intercept. The uncompetitve Ki was similarly calculated from the x-intercept of the plot of the reciprocal of the apparent Vmax versus the inhibitor concentration.

The target of another experiment is T2, TC-PTP (Homo sapiens, UniProt P17706).
T2 construct: chromatography of TCPTP (amino acid residues 1-283) was on Q-Sepharose-FF
T2 sequence (P17706 1-283): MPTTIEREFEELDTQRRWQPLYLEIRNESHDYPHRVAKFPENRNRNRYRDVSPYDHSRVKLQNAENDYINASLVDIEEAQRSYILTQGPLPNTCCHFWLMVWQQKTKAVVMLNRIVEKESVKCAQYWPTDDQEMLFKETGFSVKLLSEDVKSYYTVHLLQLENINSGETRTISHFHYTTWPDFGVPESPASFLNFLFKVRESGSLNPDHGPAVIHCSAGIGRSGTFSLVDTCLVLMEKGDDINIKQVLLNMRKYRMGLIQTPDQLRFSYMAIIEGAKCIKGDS
Put plainly: Inhibition constant determination, selectivity panel: TCPTP (pNPP hydrolysis). The experiment is classed as biochemical. To be noted: for Ki: competitive Ki, pNPP substrate, +/− S.D., read-out: Phosphatase Inhibition Constants (Kic) TC-PTP; for selective for PTP1B over TCPTP: from Kic values of Table 1.

Experiment [2] concerns the target T3, CDC25c (fusion with glutathione-S-transferase) (Homo sapiens, UniProt P30307).
T3 construct: GST (glutathione-S-transferase); made in house; host or cells: E. coli
T3 sequence (P30307 1-473): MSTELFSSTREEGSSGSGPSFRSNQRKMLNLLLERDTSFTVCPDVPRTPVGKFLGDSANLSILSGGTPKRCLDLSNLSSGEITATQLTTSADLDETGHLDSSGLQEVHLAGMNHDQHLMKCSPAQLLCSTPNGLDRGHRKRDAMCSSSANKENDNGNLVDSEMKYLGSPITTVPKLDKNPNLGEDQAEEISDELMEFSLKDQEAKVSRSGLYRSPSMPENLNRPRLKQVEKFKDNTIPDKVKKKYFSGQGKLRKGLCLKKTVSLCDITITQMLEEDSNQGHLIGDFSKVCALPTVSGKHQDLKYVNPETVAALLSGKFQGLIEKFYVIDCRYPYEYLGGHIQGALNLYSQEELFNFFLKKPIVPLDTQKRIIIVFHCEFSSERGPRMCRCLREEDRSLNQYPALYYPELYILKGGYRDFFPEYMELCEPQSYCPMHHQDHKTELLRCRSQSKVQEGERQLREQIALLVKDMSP
Put plainly: Inhibition constant determination, selectivity panel: Cdc25c (pNPP hydrolysis). The experiment is classed as biochemical. Conditions: competitive Ki, pNPP substrate; read-out: Phosphatase Inhibition Constants (Kic) Cdc25c.
Description: (§1) Protein tyrosine phosphatase 1B activity was determined by measuring the rate of hydrolysis of a surrogate substrate, p-nitrophenyl phosphate (aka pNPP, C1907 Sigma, St. Louis, Mo.). The assay was carried out at room temperature in 96 well polypropylene or polyethylene plates in a total volume of 100 μL per well. Appropriate dilutions of the compounds were made in DMSO and then diluted ten fold with water. […] The reaction was initiated by adding 50 μL of diluted PTP1B diluted in 2× assay buffer containing 50 mM HEPES (pH=7.5), 300 mM NaCl and 0.2 mg/mL BSA. The phosphatase activity results in the formation of the colored product p-nitrophenol (pNP) which was continuously monitored at 405 nm every 30 seconds for 15 minutes using an appropriate plate reader. The absorbance at 405 nm was converted to nanomoles of pNP using a standard curve and the initial rate of pNP formation was calculated. […] The ratio of the apparent Km/Vmax vs. inhibitor concentration was plotted and the competitive Ki was calculated by linear regression to be the negative x-intercept. The uncompetitve Ki was similarly calculated from the x-intercept of the plot of the reciprocal of the apparent Vmax versus the inhibitor concentration.
(§2) The Kic and Kiu values are calculated as described for PTP1B. […]

In the next experiment the target is T4, CD45 (Homo sapiens, UniProt P08575).
T4 construct: purchased Biomol Research Laboratories SE-135
T4 sequence (P08575 609-1306 limits assumed): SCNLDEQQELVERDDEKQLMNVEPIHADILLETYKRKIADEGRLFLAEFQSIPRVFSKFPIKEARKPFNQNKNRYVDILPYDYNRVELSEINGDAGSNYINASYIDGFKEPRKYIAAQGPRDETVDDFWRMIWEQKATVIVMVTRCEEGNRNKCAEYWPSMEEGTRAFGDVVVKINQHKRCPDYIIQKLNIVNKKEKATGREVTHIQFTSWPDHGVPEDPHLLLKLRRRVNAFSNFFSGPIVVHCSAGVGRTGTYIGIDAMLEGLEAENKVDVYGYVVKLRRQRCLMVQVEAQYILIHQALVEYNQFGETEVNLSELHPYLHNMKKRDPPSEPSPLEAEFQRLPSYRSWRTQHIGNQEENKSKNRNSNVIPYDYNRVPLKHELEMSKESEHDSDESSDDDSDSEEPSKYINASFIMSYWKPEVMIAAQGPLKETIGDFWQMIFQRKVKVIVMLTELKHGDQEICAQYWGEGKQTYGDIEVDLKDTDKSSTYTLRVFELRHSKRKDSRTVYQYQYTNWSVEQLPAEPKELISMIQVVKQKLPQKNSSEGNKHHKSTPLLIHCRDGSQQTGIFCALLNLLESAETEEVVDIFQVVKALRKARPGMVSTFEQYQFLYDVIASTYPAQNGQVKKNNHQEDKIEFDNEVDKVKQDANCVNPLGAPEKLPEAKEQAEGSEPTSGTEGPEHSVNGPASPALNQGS
Put plainly: Inhibition constant determination, selectivity panel: CD45 (pNPP hydrolysis). The experiment is classed as biochemical. Conditions: competitive Ki, pNPP substrate; read-out: Phosphatase Inhibition Constants (Kic) CD45.

A further experiment addresses T5, SHP-2 (full length) (Homo sapiens, UniProt Q06124).
T5 construct: SHP-2 (full length) was expressed in from E. coli; made in house; host or cells: E. coli
T5 sequence (Q06124 1-593): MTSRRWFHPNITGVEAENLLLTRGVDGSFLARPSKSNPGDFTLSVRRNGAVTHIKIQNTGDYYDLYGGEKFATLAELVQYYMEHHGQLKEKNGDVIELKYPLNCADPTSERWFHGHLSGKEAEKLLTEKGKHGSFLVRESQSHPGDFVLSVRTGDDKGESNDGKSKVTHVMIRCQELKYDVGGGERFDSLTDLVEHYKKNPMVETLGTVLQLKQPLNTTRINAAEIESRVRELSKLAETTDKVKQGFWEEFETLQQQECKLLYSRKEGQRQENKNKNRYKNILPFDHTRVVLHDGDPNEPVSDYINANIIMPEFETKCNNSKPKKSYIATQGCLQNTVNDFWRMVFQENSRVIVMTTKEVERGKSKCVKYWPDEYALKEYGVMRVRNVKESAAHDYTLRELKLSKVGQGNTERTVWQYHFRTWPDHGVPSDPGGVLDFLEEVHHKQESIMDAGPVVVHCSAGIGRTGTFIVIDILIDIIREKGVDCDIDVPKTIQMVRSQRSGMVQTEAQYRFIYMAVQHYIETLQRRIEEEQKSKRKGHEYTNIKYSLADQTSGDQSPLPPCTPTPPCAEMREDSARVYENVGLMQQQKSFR
Put plainly: Inhibition constant determination, selectivity panel: SHP-2 (pNPP hydrolysis). Conditions: competitive Ki, pNPP substrate; read-out: Phosphatase Inhibition Constants (Kic) SHP-2. The experiment is classed as biochemical.

For the next experiment, the target named is T6, LAR (Homo sapiens, UniProt P10586).
T6 construct: purchased New England Biolabs P0750L
T6 sequence (P10586 1301-1639 limits assumed): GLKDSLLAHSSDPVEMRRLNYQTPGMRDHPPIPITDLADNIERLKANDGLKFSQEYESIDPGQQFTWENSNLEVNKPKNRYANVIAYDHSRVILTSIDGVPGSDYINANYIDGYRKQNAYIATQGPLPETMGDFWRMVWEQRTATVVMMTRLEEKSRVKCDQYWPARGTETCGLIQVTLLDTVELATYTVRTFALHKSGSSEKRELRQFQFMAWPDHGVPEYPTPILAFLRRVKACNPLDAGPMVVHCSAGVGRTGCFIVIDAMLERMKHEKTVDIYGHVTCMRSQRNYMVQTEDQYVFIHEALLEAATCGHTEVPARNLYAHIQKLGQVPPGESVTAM
Put plainly: Inhibition constant determination, selectivity panel: LAR (pNPP hydrolysis). Format: biochemical. To be noted: competitive Ki, pNPP substrate; read-out: Phosphatase Inhibition Constants (Kic) LAR.

Another experiment deals with T7, PP2B (Bos taurus, UniProt P48452).
T7 construct: purchased Sigma C1907
T7 sequence (P63099 2-170 partner limits assumed, other chains not shown): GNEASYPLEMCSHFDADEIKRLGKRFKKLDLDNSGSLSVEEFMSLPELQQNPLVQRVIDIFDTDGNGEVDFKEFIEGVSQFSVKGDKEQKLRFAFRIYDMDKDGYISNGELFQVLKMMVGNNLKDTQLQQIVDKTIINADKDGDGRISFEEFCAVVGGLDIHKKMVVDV
Put plainly: Inhibition constant determination, selectivity panel: PP2B (pNPP hydrolysis). Conditions: competitive Ki, pNPP substrate, TRIS-HCl pH 8.6 buffer; read-out: Phosphatase Inhibition Constants (Kic) PP2B. The experiment is classed as biochemical, Bovine.

Experimental findings from patent US20020169157A1, “Selective protein tyrosine phosphatatase inhibitors” (priority 2000, published 2002) are described below.

Bounds are passed on as bounds.

Description for CD45: (§3) Protein tyrosine phosphatase 1B activity was determined by measuring the rate of hydrolysis of a surrogate substrate, p-nitrophenyl phosphate (aka pNPP, C1907 Sigma, St. Louis, Mo.). The assay was carried out at room temperature in 96 well polypropylene or polyethylene plates in a total volume of 100 μL per well. Appropriate dilutions of the compounds were made in DMSO and then diluted ten fold with water. […] The reaction was initiated by adding 50 μL of diluted PTP1B diluted in 2× assay buffer containing 50 mM HEPES (pH=7.5), 300 mM NaCl and 0.2 mg/mL BSA. The phosphatase activity results in the formation of the colored product p-nitrophenol (pNP) which was continuously monitored at 405 nm every 30 seconds for 15 minutes using an appropriate plate reader. The absorbance at 405 nm was converted to nanomoles of pNP using a standard curve and the initial rate of pNP formation was calculated. […] The ratio of the apparent Km/Vmax vs. inhibitor concentration was plotted and the competitive Ki was calculated by linear regression to be the negative x-intercept. The uncompetitve Ki was similarly calculated from the x-intercept of the plot of the reciprocal of the apparent Vmax versus the inhibitor concentration. […]
as §2
Description for LAR: as §3, §2
Description for PP2B: as §3, §2
Description for SHP-2 (full length): as §1, §2
Description for TC-PTP: Protein tyrosine phosphatase 1B activity was determined by measuring the rate of hydrolysis of a surrogate substrate, p-nitrophenyl phosphate (aka pNPP, C1907 Sigma, St. Louis, Mo.). The assay was carried out at room temperature in 96 well polypropylene or polyethylene plates in a total volume of 100 μL per well. Appropriate dilutions of the compounds were made in DMSO and then diluted ten fold with water. […] The reaction was initiated by adding 50 μL of diluted PTP1B diluted in 2× assay buffer containing 50 mM HEPES (pH=7.5), 300 mM NaCl and 0.2 mg/mL BSA. The phosphatase activity results in the formation of the colored product p-nitrophenol (pNP) which was continuously monitored at 405 nm every 30 seconds for 15 minutes using an appropriate plate reader. The absorbance at 405 nm was converted to nanomoles of pNP using a standard curve and the initial rate of pNP formation was calculated. For each concentration of test compound (inhibitor) or DMSO control, the initial rates are used to fit the rectangular hyperbola of Michaelis-Menten by non-linear regression analysis (GraphPad Software Prism 3.0). The ratio of the apparent Km/Vmax vs. inhibitor concentration was plotted and the competitive Ki was calculated by linear regression to be the negative x-intercept. The uncompetitve Ki was similarly calculated from the x-intercept of the plot of the reciprocal of the apparent Vmax versus the inhibitor concentration.
TCPTP used was either obtained commercially (catalog#752L New England Biolabs, 32 Tozer Rd, Beverly, Mass.) or as described for PTP1B. The purification of TCPTP differed from the purification of PTP1b in that chromatography of TCPTP (amino acid residues 1-283) was on Q-Sepharose-FF (Amersham Pharmacia Biotech) in 50 mM TRIS-HC1, pH 7.5, 2 mM DTT, 10% (v/v) glycerol, and was eluted with a 3 CV gradient of 0-300 mM NaCl in the same buffer. Fractions which contained TCPTP were selected and pooled based on SDS-PAGE. They were dialyzed versus 40 mM sodium phosphate, pH 7.5, 1 M ammonium sulfate, 10% (v/v) glycerol, 2 mM DTT, 1 mM sodium azide, applied to Phenyl Sepharose FF (Amersham Pharmacia Biotech), washed with 2.5 CV of the same buffer, and eluted with a 7 CV gradient of 1M to 0M NaCl in the same buffer. Fractions were assayed, pooled, frozen and stored as described for PTP1B.
The Kic and Kiu values are calculated as described for PTP1B. The assays were performed as described for PTP-1B except for the following changes. All the phosphatases except PP2B use the same 2× assay buffer as PTP1B. […] The concentrations of pNPP present in 40 ul were the same for TCPTP, CD45, LAR and PTP1B.

On to `CCC(CN(C(=O)C(=O)O)c1ccc(C[C@H](NC(=O)OC(C)(C)C)C(=O)NCCCCOc2cccc(O)c2C(=O)OC)cc1)C(=O)O` (stereo partly drawn) [Example 36, Methyl 2-(4-{[N-(tert-butoxycarbonyl)-4-[(2-carboxybutyl)(carboxycarbonyl)amino]phenylalanyl]amino}butoxy)-6-hydroxybenzoate], for which the Ki in experiment [1] was found to be 1.3 µM; at TC-PTP, 7.9 µM. Besides, the “selective for PTP1B over TCPTP” value at TC-PTP is “at least 6 fold”.
On to `CCc1cc(C[C@H](NC(C)=O)C(=O)NCCCCOc2cccc(O)c2C(=O)OC)ccc1N(C(=O)C(=O)O)c1ccccc1C(=O)O` [Example 13, Methyl 2-{4-[(N-acetyl-4-[(carboxycarbonyl)(2-carboxyphenyl)amino]-3-ethylphenylalanyl)amino]butoxy}-6-hydroxybenzoate], for which the Ki in experiment [2] was greater than 200 µM; at CD45, greater than 200 µM; on SHP-2 (full length) it was 14.2 µM; on TC-PTP it was 0.57 µM; on LAR it was 4.6 µM; on PP2B, greater than 200 µM.
`COC(=O)c1c(O)cccc1OCCCCNC(=O)[C@H](Cc1ccc(NC(=O)C(=O)O)cc1)NC(=O)OC(C)(C)C` [Example 45, Methyl 2-(4-{[4-(carboxycarbonyl)amino-N-(tert-butoxycarbonyl)phenylalanyl]amino}butoxy)-6-hydroxybenzoate]: at TC-PTP, the Ki came out at 141 µM.
As to `COC(=O)c1c(O)cccc1OCCCCNC(=O)CCc1ccc(NC(=O)C(=O)O)c(C(=O)O)c1` [Example 52, 2-[(carboxycarbonyl)amino]-5-[3-({4-[3-hydroxy-2-(methoxycarbonyl)phenoxy]butyl}amino)-3-oxopropyl]benzoic acid], the Ki worked out at 2.7 µM in experiment [1] and 38.2 µM at TC-PTP. Further, the “selective for PTP1B over TCPTP” value at TC-PTP was “at least 14 fold”.
`CCc1cc(C[C@H](NC(C)=O)C(=O)NCCCCC(=O)N[C@@H](CCSC)C(=O)O)ccc1N(C(=O)C(=O)O)c1ccccc1C(=O)O` [Example 3, N-{5-[(N-acetyl-4-[(carboxycarbonyl)(2-carboxyphenyl)amino]-3-ethylphenylalanyl)amino]pentanoyl}-L-methionine]: the Ki is greater than 200 µM in experiment [2]; greater than 200 µM on CD45; 17 µM on SHP-2 (full length); 5 µM at LAR; greater than 200 µM at PP2B.
